For series [1], the target named is Platelet-derived growth factor receptor alpha (Homo sapiens) (UniProt P16234). Kind of series: Inhibition of recombinant human GST-tagged PDGFRalpha (550 to 1089 residues) expressed in baculovirus expression system at 500 nM using Tyr 04 as substrate incubated for 1 hr in presence of ATP at its Km concentration by Z'-LYTE assay relative to control.
Another series relates to BaF3. Kind of series: Antiproliferative activity against mouse Ba/F3 cells expressing EGFR-L858R mutant assessed as inhibition of cell growth incubated for 48 hrs by XTT assay. Format: functional, cell-based. The conditions noted are these: BaF3, 48 h. (Tetrazolium dyes change colour on reduction, which living cells bring about.)
For series [2], the target named is Receptor tyrosine-protein kinase erbB-4 (Homo sapiens) (UniProt Q15303). Kind of series: Inhibition of recombinant human N-terminal GST-tagged ERBB4 catalytic domain (708 to 993 residues) expressed in baculovirus expression system at 500 nM using Tyr 01 peptide as substrate incubated for 1 hr in presence of ATP at its Km concentration by Z'-LYTE assay relative to control.

In series [3] the target is Tyrosine-protein kinase Fyn (Homo sapiens) (UniProt P06241). Kind of series: Inhibition of recombinant human C-terminal His-tagged full length FYN expressed in baculovirus expression system at 500 nM using Tyr 02 peptide as substrate incubated for 1 hr in presence of ATP at its Km concentration by Z'-LYTE assay relative to control.
Tyrosine-protein kinase Fyn (Homo sapiens), sequence (P06241 2-537 limits assumed): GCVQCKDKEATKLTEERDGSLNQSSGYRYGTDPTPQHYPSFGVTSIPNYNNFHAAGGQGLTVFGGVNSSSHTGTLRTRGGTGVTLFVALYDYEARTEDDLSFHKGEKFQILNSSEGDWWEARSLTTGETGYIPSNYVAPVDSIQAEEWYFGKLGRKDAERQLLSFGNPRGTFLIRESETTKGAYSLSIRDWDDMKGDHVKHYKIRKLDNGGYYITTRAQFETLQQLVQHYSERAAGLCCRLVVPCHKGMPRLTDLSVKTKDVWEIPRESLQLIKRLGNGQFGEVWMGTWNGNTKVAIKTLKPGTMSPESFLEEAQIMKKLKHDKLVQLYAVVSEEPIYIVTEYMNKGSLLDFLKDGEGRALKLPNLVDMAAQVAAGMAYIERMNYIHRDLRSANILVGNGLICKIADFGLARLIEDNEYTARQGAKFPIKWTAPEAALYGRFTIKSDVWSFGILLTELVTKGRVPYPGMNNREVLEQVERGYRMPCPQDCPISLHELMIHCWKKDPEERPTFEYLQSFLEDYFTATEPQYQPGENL
Series [4] deals with Tyrosine-protein kinase Lyn (Homo sapiens) (UniProt P07948). Kind of series: Inhibition of recombinant full length human His-tagged LYN-B expressed in baculovirus expression system at 500 nM using Tyr 02 as substrate incubated for 1 hr in presence of ATP at its Km concentration by Z'-LYTE assay relative to contro.
Tyrosine-protein kinase Lyn (Homo sapiens), sequence (P07948 2-512 limits assumed): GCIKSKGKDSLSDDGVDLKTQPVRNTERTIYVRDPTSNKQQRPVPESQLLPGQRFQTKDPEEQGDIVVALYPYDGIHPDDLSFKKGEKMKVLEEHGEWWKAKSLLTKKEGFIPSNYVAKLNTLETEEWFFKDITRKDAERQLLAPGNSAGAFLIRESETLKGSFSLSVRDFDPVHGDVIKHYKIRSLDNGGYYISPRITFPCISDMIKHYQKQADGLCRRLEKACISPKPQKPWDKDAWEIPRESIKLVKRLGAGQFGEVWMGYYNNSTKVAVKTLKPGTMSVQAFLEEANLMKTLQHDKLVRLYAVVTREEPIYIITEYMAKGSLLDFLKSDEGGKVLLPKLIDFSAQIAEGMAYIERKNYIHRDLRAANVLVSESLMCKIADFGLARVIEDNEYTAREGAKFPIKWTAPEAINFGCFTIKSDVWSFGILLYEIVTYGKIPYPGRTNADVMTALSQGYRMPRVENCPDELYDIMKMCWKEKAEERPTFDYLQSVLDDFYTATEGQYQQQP
The target in series [5] is Focal adhesion kinase 1 (Homo sapiens) (UniProt Q05397). In words: Inhibition of recombinant full length human GST-tagged PTK2 expressed in baculovirus expression system at 500 nM using Tyr 07 as substrate incubated for 1 hr in presence of ATP at its Km concentration by Z'-LYTE assay relative to control.
Series [6] concerns the target Tyrosine-protein kinase Yes (Homo sapiens) (UniProt P07947). In words: Inhibition of full length recombinant GST-tagged human YES1 expressed in baculovirus expression system at 500 nM using Tyr 02 as substrate incubated for 1 hr in presence of ATP at its Km concentration by Z'-LYTE assay relative to control.
The target of series [7] is Tyrosine-protein kinase ABL1 (Homo sapiens) (UniProt P00519). Kind of series: Inhibition of recombinant full length human His-tagged ABL1 cytoplasmic domain expressed in baculovirus expression system at 500 nM using Tyr 02 peptide as substrate incubated for 1 hr in presence of ATP at its Km concentration by Z'-LYTE assay relative to control.
Series [8] addresses Tyrosine-protein kinase JAK2 (Homo sapiens) (UniProt O60674). Kind of series: Inhibition of human recombinant GST tagged JAK2 catalytic domain expressed in baculovirus expression system at 500 nM using Tyr 06 as substrate incubated for 1 hr in presence of ATP at its Km concentration by Z'-LYTE assay relative to control.
In series [9] the target is Serine/threonine-protein kinase pim-2 (Homo sapiens) (UniProt Q9P1W9). Kind of series: Inhibition of recombinant full length GST-tagged human PIM2 expressed in baculovirus expression system at 500 nM using Ser/Thr 07 as substrate incubated for 1 hr in presence of ATP at its Km concentration by Z'-LYTE assay relative to control.
Serine/threonine-protein kinase pim-2 (Homo sapiens), sequence (Q9P1W9 whole entry, looked up, the tested form may be a part): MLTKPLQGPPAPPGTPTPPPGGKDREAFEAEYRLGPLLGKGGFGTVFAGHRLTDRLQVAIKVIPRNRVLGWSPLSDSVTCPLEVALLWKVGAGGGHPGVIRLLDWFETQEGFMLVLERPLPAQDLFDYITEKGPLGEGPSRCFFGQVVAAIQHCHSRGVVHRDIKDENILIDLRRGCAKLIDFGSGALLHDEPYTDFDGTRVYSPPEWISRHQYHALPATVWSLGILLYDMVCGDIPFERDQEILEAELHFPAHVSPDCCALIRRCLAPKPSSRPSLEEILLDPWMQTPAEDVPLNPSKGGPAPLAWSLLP
The target of series [10] is Vascular endothelial growth factor receptor 1 (Homo sapiens) (UniProt P17948). In words: Inhibition of recombinant human GST-tagged FLT1 catalytic domain (781 to 1338 residues) expressed in baculovirus expression system at 500 nM using Tyr 04 peptide as substrate incubated for 1 hr in presence of ATP at its Km concentration by Z'-LYTE assay relative to control.
Vascular endothelial growth factor receptor 1 (Homo sapiens), sequence (P17948 whole entry, the tested form may be a part): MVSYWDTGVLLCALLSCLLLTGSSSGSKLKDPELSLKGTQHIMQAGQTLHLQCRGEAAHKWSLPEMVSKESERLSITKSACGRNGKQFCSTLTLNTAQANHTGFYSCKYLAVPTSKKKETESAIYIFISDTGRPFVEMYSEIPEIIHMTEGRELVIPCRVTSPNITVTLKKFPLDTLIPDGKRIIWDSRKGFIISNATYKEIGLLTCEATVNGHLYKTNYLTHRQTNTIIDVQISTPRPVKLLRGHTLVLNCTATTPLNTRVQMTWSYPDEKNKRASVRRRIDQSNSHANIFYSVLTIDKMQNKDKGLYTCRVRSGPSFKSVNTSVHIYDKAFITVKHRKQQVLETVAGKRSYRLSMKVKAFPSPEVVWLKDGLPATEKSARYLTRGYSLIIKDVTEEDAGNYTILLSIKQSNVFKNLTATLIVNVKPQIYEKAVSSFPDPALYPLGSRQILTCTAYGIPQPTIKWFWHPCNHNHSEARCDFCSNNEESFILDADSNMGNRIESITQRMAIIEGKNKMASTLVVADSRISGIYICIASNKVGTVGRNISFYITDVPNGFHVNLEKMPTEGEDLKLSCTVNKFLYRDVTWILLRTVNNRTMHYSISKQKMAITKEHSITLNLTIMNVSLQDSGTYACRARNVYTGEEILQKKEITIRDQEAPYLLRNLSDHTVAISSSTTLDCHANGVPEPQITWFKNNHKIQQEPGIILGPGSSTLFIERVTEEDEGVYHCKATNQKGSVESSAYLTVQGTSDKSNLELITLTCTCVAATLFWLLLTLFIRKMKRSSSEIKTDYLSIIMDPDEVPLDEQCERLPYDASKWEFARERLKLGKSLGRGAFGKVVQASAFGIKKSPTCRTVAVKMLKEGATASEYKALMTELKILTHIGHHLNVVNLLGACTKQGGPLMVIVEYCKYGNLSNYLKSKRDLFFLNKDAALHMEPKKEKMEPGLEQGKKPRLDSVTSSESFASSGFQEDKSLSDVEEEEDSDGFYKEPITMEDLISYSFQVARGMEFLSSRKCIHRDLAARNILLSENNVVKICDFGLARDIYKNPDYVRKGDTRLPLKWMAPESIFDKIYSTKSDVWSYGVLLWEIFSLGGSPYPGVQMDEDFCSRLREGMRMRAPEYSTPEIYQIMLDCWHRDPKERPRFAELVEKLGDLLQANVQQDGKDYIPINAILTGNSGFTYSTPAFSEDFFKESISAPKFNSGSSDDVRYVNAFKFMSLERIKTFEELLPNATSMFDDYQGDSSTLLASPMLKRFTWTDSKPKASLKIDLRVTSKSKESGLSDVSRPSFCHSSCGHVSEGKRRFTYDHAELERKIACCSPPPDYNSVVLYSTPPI
Series [11] deals with T1, Epidermal growth factor receptor (Homo sapiens, UniProt P00533). Kind of series: Inhibition of EGFR (unknown origin) using Tyr 04 peptide as substrate incubated for 1 hr by Z'-LYTE assay.
T1 sequence (P00533 whole entry): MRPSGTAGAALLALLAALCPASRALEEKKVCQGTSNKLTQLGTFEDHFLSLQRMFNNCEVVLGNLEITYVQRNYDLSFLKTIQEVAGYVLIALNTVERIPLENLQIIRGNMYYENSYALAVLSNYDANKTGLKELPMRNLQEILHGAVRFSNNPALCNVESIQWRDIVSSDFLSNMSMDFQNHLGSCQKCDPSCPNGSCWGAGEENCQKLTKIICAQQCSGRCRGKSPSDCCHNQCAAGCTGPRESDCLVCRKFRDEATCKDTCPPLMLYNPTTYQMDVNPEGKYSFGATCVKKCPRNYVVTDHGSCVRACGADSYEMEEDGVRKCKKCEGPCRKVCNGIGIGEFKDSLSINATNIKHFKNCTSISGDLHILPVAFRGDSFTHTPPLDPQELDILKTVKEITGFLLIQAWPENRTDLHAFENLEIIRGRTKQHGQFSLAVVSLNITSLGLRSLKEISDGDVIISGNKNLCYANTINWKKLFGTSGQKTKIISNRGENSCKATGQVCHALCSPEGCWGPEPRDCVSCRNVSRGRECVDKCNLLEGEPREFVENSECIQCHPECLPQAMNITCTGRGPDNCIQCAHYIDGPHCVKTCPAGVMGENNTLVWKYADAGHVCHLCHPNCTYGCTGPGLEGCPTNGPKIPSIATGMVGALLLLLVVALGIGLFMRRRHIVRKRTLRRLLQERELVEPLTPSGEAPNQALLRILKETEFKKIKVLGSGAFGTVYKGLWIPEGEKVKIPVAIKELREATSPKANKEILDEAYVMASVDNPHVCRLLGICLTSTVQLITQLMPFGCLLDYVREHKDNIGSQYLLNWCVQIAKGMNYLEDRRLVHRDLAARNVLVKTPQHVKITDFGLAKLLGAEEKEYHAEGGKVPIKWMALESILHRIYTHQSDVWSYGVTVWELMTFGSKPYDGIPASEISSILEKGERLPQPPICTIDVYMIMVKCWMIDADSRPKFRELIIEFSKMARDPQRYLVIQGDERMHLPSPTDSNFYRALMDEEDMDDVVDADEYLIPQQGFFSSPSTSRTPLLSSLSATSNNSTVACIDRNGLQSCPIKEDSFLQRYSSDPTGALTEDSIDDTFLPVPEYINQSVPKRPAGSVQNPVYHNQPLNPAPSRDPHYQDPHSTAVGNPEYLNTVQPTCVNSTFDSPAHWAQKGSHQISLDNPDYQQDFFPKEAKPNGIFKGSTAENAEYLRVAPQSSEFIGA
Series [12] has as its target T1, Epidermal growth factor receptor. The following applies: dose 100.0 nM, time 1.0 hrs.
For a further series, the system named is AU565. Kind of series: Antiproliferative activity against human AU565 cells incubated for 72 hrs by ATPlite luminescence assay. Format: functional, cell-based. The following applies: AU565, 72 h. In general terms: ATP-based viability assays read luminescence as a measure of living cells.
For another series, the system named is CAL-27. In words: Antiproliferative activity against human CAL27 cells. Format: functional, cell-based.
In another series the test system is FaDu. In words: Antiproliferative activity against human FaDU cells assessed as inhibition of cell growth incubated for 72 hrs by Cell Titer Glo luminescent cell viability assay. Format: functional, cell-based.
In the next series the test system is BXPC-3. In words: Antiproliferative activity against human BXPC-3 cells measured for 96 hrs by sytox green dye staining based proliferation assay. In kind it is functional, cell-based. The following applies: BXPC-3, 96 h.
Another series has as its system C-33-A. Kind of series: Antiproliferative activity against human C-33A cells incubated for 72 hrs by ATPlite luminescence assay. In kind it is functional, cell-based.
The test system of another series is PC-9. In words: Antiproliferative activity against human PC9 cells measured for 96 hrs by sytox green dye staining based proliferation assay. The following applies: PC-9, 96 h. In kind it is functional, cell-based.
Another series deals with K562. In words: Antiproliferative activity against human K562 cells assessed as inhibition of cell growth incubated for 72 hrs by Cell Titer Glo luminescent cell viability assay. Format: functional, cell-based. The conditions noted are these: K562, 72 h.
Another series deals with A549. Kind of series: Antiproliferative activity against human A549 cells assessed as inhibition of cell growth incubated for 72 hrs by Cell Titer Glo luminescent cell viability assay. Format: functional, cell-based. The following applies: A549, 72 h.
In series [13] the target is Inhibitor of nuclear factor kappa-B kinase subunit beta (Homo sapiens) (UniProt O14920). Kind of series: Inhibition of recombinant human full-length GST-tagged IKBKB expressed in baculovirus expression system at 500 nM using Ser/Thr 05 as substrate incubated for 1 hr in presence of ATP at its Km concentration by Z'-LYTE assay relative to control.
Series [14] is described as follows: Apparent permeability from basolateral to apical side in human Caco2 cells at 10 uM measured for 120 mins by LC-MS/MS analysis. The following applies: Caco-2. Background: Caco-2 cells form a polarised layer with tight junctions and transporters.
Series [15] concerns the target Voltage-gated inwardly rectifying potassium channel KCNH2 (Homo sapiens, UniProt Q12809). In words: Inhibition of human ERG expressed in CHO cells at -80 mV holding potential by IonWorks patch-clamp electrophysiology assay.
Series [16] is described as follows: Metabolic stability in pooled human liver microsomes assessed as Clearance at 3 uM measured up to 45 mins in presence of NADPH by LC-MS/MS analysis. In kind it is ADME, Microsome. The following applies: pooled liver microsomes, read-out: CLH.
Series [17] can be described thus: Apparent permeability from apical to basolateral side in human Caco2 cells at 10 uM measured for 120 mins by LC-MS/MS analysis. The conditions noted are these: Caco-2.
Series [18] has as its target MAP kinase-activated protein kinase 2 (Homo sapiens) (UniProt P49137). In words: Inhibition of recombinant human His-tagged full length MAPKAPK2 expressed in Escherichia coli expression system at 500 nM using Ser/Thr 04 as substrate incubated for 1 hr in presence of ATP at its Km concentration by Z'-LYTE assay relative to control.
Series [19] in a line: Protein binding in plasma (unknown origin) assessed as unbound fraction at 5 uM by LC-MS/MS based equilibrium dialysis analysis.

A value given as a limit tells only on which side of the number the result lay.

Tyrosine-protein kinase JAK2 (Homo sapiens), sequence (O60674 whole entry, the tested form may be a part): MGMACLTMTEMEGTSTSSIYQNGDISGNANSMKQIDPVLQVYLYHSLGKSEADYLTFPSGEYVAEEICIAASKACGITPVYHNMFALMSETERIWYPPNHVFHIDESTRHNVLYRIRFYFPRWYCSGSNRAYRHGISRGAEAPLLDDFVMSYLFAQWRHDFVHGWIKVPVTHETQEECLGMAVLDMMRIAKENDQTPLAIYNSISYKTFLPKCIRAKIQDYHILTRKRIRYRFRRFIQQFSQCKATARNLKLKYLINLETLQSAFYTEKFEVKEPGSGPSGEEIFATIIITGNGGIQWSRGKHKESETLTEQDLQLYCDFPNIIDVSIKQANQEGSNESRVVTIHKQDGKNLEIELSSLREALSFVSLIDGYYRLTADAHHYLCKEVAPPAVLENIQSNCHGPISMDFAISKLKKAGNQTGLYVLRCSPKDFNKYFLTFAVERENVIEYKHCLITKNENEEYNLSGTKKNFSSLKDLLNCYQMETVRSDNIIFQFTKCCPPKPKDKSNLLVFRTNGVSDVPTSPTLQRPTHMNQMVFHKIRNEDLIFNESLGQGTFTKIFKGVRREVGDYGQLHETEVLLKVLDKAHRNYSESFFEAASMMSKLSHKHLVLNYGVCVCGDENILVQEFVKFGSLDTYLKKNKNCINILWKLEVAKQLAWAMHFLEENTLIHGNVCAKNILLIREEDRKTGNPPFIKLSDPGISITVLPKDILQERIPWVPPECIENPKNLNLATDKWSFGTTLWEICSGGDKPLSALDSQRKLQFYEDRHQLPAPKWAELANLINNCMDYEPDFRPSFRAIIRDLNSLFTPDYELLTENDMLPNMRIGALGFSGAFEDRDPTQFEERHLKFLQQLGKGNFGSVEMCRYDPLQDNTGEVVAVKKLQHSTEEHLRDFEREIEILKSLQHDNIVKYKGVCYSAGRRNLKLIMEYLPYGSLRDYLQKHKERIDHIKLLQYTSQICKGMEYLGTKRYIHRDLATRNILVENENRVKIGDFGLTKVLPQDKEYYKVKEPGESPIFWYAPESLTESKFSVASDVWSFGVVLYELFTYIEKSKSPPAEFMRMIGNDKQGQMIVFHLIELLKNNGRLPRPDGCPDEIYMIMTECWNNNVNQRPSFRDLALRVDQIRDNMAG

`CCOc1ccccc1-c1cc2c(N[C@H](CO)c3ccccc3)ncnc2[nH]1`: the inhibition was -8% in series [1]; 62% in series [2]; 34% in series [3]; 44% in series [4]; 9% in [5]; 56% in [6]. The inhibition in [7] is 33%; in series [8] it was 11%; in series [9], 2%; in series [10], 3%. In addition, the IC50 with BaF3 turned out to be 98 nM.
For the molecule `COc1ccccc1-c1cc2c(N[C@H](CO)c3ccccc3)ncnc2[nH]1`, the inhibition in series [1] was 6%; in series [2], 79%; in [3], 27%; in series [4] it was 64%; in [5], -2%; in series [6], 68%. Moreover, the inhibition was 50% in series [7]; 11% in series [8]; 100% in [12]; 5% in [9]; 5% in series [10]. Also, the values for the IC50 (with BaF3; in [11]) were 134 nM and 0.8 nM, respectively.
Regarding `OC[C@@H](Nc1ncnc2[nH]c(-c3ccccc3)cc12)c1ccccc1`, the IC50 in the series on AU565 is 2500 nM; in the series with CAL-27, 2700 nM; in the series with FaDu it was greater than 33 µM; with BXPC-3 it was 15 µM; in the series with C-33-A it was 700 nM; in the series with PC-9, less than 100 nM. For the same molecule, the IC50 is 0.4 nM in series [11], 15 µM in the series on K562 and greater than 100 µM with A549. The inhibition came to 51% in series [2]; 27% in series [3]; 60% in series [4]; 65% in [6]; 65% in [7]; 34% in series [8]. The inhibition in series [12] stood at 99%; in series [9] it was 9%; in series [10], 8%.
Take `C#Cc1cccc(Nc2ncnc3cc(OCCOC)c(OCCOC)cc23)c1` [ERLOTINIB]: the concentration for half-maximal inhibition (IC50) with AU565 was 3300 nM; with BaF3, 87 nM; with CAL-27, 1300 nM; in the series with FaDu, greater than 11 µM; in the series on BXPC-3, 1.9 µM; in series [15], greater than 25 µM. Also, the IC50 in the series with C-33-A was 900 nM; with PC-9, less than 100 nM; in the series with K562 it was 55 µM; in the series on A549 it was greater than 100 µM. The inhibition is -5% in series [13], -3% in series [5] and -1% in series [18]. Further, in series [14], the Papp B→A at 2 h, 10 µM came to 31 ×10⁻⁶ cm/s. Besides, the microsomal CLint at 3 µM in series [16] was 43.8 µL/min/mg. Also, the Papp A→B at 2 h, 10 µM in series [17] was 38.8 ×10⁻⁶ cm/s. The fraction unbound at 5 µM in series [19] came to 0.117.
As to `CN(C)CCNCc1ccc(-c2cc3c(N[C@H](CO)c4ccccc4)ncnc3[nH]2)cc1F`, the IC50 with BaF3 worked out at 142 nM. Moreover, the inhibition in series [2] came to 74%; in series [3], 55%; in [4] it was 68%; in series [5], 1%; in [6], 81%; in [7] it was 87%. Besides, the figures for the inhibition in series [8], in series [9] and in series [10] were 5%, -5% and 12%, respectively.
`OCC[C@@H](Nc1ncnc2[nH]c(-c3ccccc3)cc12)c1ccccc1`: the half-maximal inhibitory concentration (IC50) with BaF3 was found to be 75 nM. The inhibition was 15% in series [2]; 26% in [3]; 49% in [4]; 7% in [5]; 50% in series [6]; 38% in series [7]. Moreover, the figures for the inhibition in series [8], in [9] and in series [10] were -1%, 6% and -4%, respectively.

The term inhibition denotes the drop in the measured response relative to a control, in per cent. The term IC50 denotes the concentration at which inhibition is half-maximal. As a reminder, the Papp B→A is the apparent permeability from the basolateral to the apical side of a cell layer. The Papp A→B is how fast a substance crosses the layer from the apical side. Usually fraction unbound stands for the share of the substance not bound to proteins or other matrix.

The record behind these values is ChEMBL document CHEMBL4715760, “Balancing potency, metabolic stability and permeability in pyrrolopyrimidine-based EGFR inhibitors” (Eur J Med Chem, 2016).
